Assay results from US12329762B2, “Pharmaceutical preparation for improving absorption and postprandial hypoglycemic action of insulin” (Eli Lilly and Company, priority 2015, dated 2025).

Assays:
[1] = 8-hour euglycemic clamp, glucose infusion rate (pharmacodynamic profile) after sc lispro ± iloprost; format: in vivo, human; conditions: OT2D subjects with A1c>8%, sc lispro 10 or 30 U with vs without 1 nmol iloprost
Description: Euglycemic clamp. Subjects were admitted to the Sherbrooke University Hospital Clinical Research Center (CRC) at 8 PM the evening prior to each study. An i.v. antecubital cannula was installed to allow venous sampling for immediate whole blood glucose level measurements by a glucose analyzer ([…] Glucometer, Abbott Diabetes Care Inc.) at 30-min intervals until glycemic target is reached and at 2-hour intervals thereafter. A second contralateral cannula was installed for continuous i.v. administration of regular insulin and glucose, as needed, and plasma glucose has been brought progressively into the normal target range of 5-7 mmol/L overnight and then kept at this level. Experiments started around 8 AM. Patients have been kept fasting (drinking water permitted) during the entire 8-hour clamp study. […] Plasma glucose levels were monitored every 5 min for the first 4 hours and at 10-min intervals thereafter. […] Subjects were allowed to leave when glucose levels were stabilised over 6 mmol/L. Plasma lispro was measured by an ultra-specific radioimmunoassay (Linco Research Inc.) Detection limit is 18 pmol/L, intra-assay CV is 2.5% in our hands (Gagnon-Auger M, et al. Diabetes Care 2010;33(12):2502-7). […] The fractional plasmatic lispro AUCs were calculated by the trapezoidal method. […]

[2] = 8-hour euglycemic clamp, plasma lispro (pharmacokinetic profile) after sc lispro ± iloprost; format: in vivo, human; conditions: OT2D subjects with A1c>8%, sc lispro 10 or 30 U with vs without 1 nmol iloprost
Description: Euglycemic clamp. Subjects were admitted to the Sherbrooke University Hospital Clinical Research Center (CRC) at 8 PM the evening prior to each study. An i.v. antecubital cannula was installed to allow venous sampling for immediate whole blood glucose level measurements by a glucose analyzer (FreeStlyle Lite Glucometer, Abbott Diabetes Care Inc.) at 30-min intervals until glycemic target is reached and at 2-hour intervals thereafter. A second contralateral cannula was installed for continuous i.v. administration of regular insulin and glucose, as needed, and plasma glucose has been brought progressively into the normal target range of 5-7 mmol/L overnight and then kept at this level. Experiments started around 8 AM. Patients have been kept fasting (drinking water permitted) during the entire 8-hour clamp study. […] Plasma glucose levels were monitored every 5 min for the first 4 hours and at 10-min intervals thereafter. […] Subjects were allowed to leave when glucose levels were stabilised over 6 mmol/L. Plasma lispro was measured by an ultra-specific radioimmunoassay (Linco Research Inc.) Detection limit is 18 pmol/L, intra-assay CV is 2.5% in our hands (Gagnon-Auger M, et al. Diabetes Care 2010;33(12):2502-7). […]
The fractional plasmatic lispro AUCs were calculated by the trapezoidal method. […]

CC#CCC(C)[C@H](O)/C=C/[C@@H]1[C@H]2C/C(=C/CCCC(=O)O)C[C@H]2C[C@H]1O (stereo partly shown) [iloprost]
maximal glucose infusion rates ([1]; FIG. 8): rapidely increased | hypoglycemic effect (early total glucose infusion, 30 to 60 min) ([1]; FIG. 9): accelerated | maximal plasma lispro concentrations ([2]; FIG. 5): rapidely increased | lispro absorption (fractional AUCs of plasmatic lispro, 10 to 40 min) ([2]; FIG. 7): accelerated
